Measurements: patent US10596168B2, “Antagonists of the thyroid-stimulating hormone receptor (TSHR)” (Forschungsverbund Berlin e.V., priority 2016, dated 2020)
Values joined by “and” are separate entries in the source; they are usually repeats but may differ in a detail not shown here. Equal values may be shown once.

What was measured:
Format in all cases: cell-based
TSHR [1] = target: T1, TSHR (Homo sapiens, UniProt P16473); assay: cAMP accumulation radioimmunoassay (RIA), inhibition of TSH-induced cAMP production in HEK-293 cells stably expressing TSHR; set-up: antagonistic activity (% inhibition): concentration or dose not given beside the values; conditions: for Antagonistic effect (cAMP inhibition) on TSHR: 50 μM together with the respective agonist, RIA, HEK-293; for antagonistic activity (% inhibition): inhibiting cAMP stimulation by TSH, radioimmunoassay; for IC50: secondary screen (RIA), dose-dependent inhibition of cAMP production caused by TSH (EC80 value), HEK-293-TSHR; for Mode of antagonism vs. TSH (Schild analysis): bTSH dose response with increasing antagonist concentrations, wt TSHR
T1 construct: expressed in transfected cells
T1 sequence (P16473 21-764): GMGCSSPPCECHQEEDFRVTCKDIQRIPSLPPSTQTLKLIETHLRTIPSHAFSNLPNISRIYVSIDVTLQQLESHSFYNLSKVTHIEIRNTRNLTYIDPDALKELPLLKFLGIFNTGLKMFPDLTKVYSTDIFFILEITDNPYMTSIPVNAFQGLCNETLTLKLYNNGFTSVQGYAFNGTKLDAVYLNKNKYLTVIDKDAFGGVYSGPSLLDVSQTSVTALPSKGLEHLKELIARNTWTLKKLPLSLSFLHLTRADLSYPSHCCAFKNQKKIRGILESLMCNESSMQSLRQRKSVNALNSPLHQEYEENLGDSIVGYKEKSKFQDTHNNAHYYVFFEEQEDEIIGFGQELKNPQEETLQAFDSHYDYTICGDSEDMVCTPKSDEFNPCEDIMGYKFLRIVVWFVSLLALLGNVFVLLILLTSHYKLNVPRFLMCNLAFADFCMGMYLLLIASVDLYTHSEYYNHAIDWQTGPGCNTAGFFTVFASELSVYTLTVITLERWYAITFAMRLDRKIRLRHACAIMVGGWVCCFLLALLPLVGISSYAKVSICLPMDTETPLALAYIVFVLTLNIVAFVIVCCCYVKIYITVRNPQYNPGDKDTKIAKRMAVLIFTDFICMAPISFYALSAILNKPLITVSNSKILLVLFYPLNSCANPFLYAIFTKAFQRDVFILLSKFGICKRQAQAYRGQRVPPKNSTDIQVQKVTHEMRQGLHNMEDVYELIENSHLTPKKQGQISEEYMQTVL
Procedure: (§1) HEK-293 cells stably expressing TSHR, FSHR, LHGCR or CRF1R were cultured for 48 h and stimulated for 1 h at 37° C. with stimulation buffer (DMEM supplemented with 10 mM HEPES, 0.5% BSA, 0.25 mM 3-isobutyl-1-methylxanthine) containing the ligands as indicated. After stimulation medium was aspirated and reactions were stopped by lysis of the cells with 0.1% trifluoroacetic acid, 0.005% Triton X-100 for 30 min at 4° C. Supernatants were collected and heated at 95° C. for 10 min, dried in a rotation vacuum concentrator (Alpha-RCV, Christ) and finally stored at −20° C. until use. After reconstitution and acetylation of the samples (Jäschke et al. 2006), the cAMP content was determined using cAMP-^125I-tyrosyl methyl ester (10,000 cpm, IBL) and polyclonal rabbit anti cAMP antibodies. The radioactivity of the precipitate was determined in a γ-counter.
For the Secondary Screening cAMP accumulation was measured by radioimmunoassay (RIA) in HEK-293-TSHR cells as described before.
For the secondary screening we used a very sensitive in vitro technique, the radioimmunoassay. This assay was established and performed in HEK-293 cell line stably expressing TSHR.
Therefore RIA was used to measure the cAMP accumulation upon stimulation with TSH (EC80 value) and confirmed the desired effect for S4 and S9 with a clear decrease of cAMP production.

TSHR [2] = target: T1, TSHR; assay: Primary screening, Enzyme Fragment Complementation (EFC) cAMP assay in CHO-K1-TSHR cells; conditions: 50 μM; after hit validation and exclusion of false positives
Procedure: Primary screening was performed using an Enzyme Fragment Complementation (EFC) technology. CHO-K1-TSHR cells (15000/well in a 384 well plate) were treated with 50 μM of each of the 16544 compounds of the ChemBioNet compound library of the Leibniz-Institut fuer Molekulare Pharmakologie (FMP), Berlin, Germany. EFC technology uses two fragments of one enzyme: an enzyme acceptor (EA) and an enzyme donor (ED). ED is labeled to (synthetic) cAMP. […] In this assay, free cAMP from cell lysates and ED-labeled cAMP compete for antibody binding sites. Unbound ED-cAMP is free to complement EA to form active enzyme, which subsequently produces a luminescent signal. Thus the luminescence signal increases with rising level of intracellular cAMP. All assay components were used after the manufacturer's protocol.
Hits were validated by dose-response curves using the EFC assay.
False-positive hits could be excluded by stimulating CHO-K1 cells without TSHR with Forskolin (23.4 μM) followed by addition of the compound of interest. Forskolin activates the Adenylyl-cyclase directly. Inhibition of this effect excludes the interaction between TSHR and compound.
For the implementation of the primary screen the Enzymes Fragment Complementation Technology (EFC) was selected.

FSHR = target: T2, FSHR (Homo sapiens, UniProt P23945); assay: Selectivity test: cAMP RIA in HEK-293 cells stably expressing FSHR; conditions: 50 μM together with the respective agonist
T2 construct: expressed in transfected cells
T2 sequence (P23945 18-695): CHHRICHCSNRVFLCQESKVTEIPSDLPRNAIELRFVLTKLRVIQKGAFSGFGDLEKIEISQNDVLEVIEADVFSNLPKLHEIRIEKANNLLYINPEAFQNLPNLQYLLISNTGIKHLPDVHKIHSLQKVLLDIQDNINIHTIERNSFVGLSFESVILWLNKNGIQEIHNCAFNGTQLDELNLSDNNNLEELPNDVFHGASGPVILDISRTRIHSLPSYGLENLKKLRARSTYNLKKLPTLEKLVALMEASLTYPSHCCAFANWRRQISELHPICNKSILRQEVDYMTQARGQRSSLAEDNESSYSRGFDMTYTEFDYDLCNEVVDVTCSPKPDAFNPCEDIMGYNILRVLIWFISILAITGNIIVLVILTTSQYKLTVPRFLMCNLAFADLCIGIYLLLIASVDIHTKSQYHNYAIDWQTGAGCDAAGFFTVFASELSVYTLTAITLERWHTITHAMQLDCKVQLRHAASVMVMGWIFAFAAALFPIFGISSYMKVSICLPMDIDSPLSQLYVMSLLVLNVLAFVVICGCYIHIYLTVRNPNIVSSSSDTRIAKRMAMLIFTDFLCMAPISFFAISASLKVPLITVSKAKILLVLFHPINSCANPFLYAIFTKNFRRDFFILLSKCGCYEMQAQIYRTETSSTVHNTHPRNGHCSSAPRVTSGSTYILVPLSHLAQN
Procedure: as §1
(§2) The antagonistic activity of compounds S4, S9, S37 and as reference compound, the micromolar inverse agonist 2-7 (Neumann et al. 2010) were tested on homologous members of the glycoprotein hormone receptor family, FSHR and LHCGR. […] All receptors were stably expressed in HEK-293 cells and the impact of each substance was measured upon administration of 50 μM together with the respective agonist. cAMP accumulation was quantified by RIA. The antagonistic potential of each compound was calculated. […]

wt TSHR = target: T3, wt TSHR (Homo sapiens, UniProt P16473); assay: cAMP stimulation by agonist compound C2 at wildtype TSHR with increasing antagonist concentrations; conditions: C2 dose response with increasing antagonist concentrations
T3 construct: expressed in transfected cells
T3 sequence (P16473 21-764): as the sequence (P16473 21-764) above
Procedure: as §1
Moreover, a Schild plot analysis provided first interesting hints that S37 might compete with the binding site of TSH, since increasing concentrations of added S37 led to a right shift of the TSH dose response curve (FIG. 5A) and to a linear Schild plot (FIG. 5B). S37 seems not to compete with the transmembrane binding site of the previous reported agonist compound 2 (Neumann et al. 2009), since increasing concentrations of added S37 led to diminished maximal values of the dose response curve for compound 2 by unchanged EC50 value (FIG. 5C).

[3] = system: Hek293 cell line stably expressing TSHR; assay: Toxicity test, alamar blue cell vitality; conditions: 10 μM-100 μM
Procedure: The vitality of the cells was measured by the alamar blue test using Hek293 cell line stably expressing TSHR. Untreated cells and DMSO-treated cells (0.2% DMSO) were used as control.
Therefore, we conclude that substance S37 is not toxic for the concentration range evaluated by this assay.

Δ1-408-TSHR = target: T4, Δ1-408-TSHR (Homo sapiens, UniProt P16473); assay: cAMP radioimmunoassay at ectodomain-truncated TSHR construct stimulated by compound 2; conditions: Δ1-408-TSHR lacking the ectodomain
T4 construct: This short construct (Δ1-408-TSHR.GFP) only consists of the transmembrane region; expressed in transfected cells
T4 sequence (P16473 409-764, stated change not applied): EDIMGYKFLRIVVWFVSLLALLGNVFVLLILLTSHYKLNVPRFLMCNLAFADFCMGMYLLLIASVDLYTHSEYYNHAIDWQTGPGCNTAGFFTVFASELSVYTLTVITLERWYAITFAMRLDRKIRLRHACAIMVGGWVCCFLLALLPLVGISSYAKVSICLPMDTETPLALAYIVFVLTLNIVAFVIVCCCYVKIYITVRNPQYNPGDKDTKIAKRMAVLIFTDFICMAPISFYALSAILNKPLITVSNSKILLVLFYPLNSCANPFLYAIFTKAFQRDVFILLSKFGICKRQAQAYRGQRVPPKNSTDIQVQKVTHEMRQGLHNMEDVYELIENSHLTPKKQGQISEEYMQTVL
Text: Ectodomain-truncated TSHR construct (Δ1-408-TSHR.GFP) was generated using quick change site-directed mutagenesis and restriction digestion to excise the desired fragment of the TSHR sequence. The DNA sequence encoding the truncated TSHR mutant was inserted into the GFP-N1 vector. The construct was fused C-terminally with GFP and N-terminally with a FLAG tag. The FLAG tag was inserted by overlap-extension PCR. A HEK-293 cell line stably expressing this construct was generated. Shortly, cells were transfected with Polyethylenimine and plasmid DNA in a 2:1 ratio in serum free medium (DMEM). Cells were selected with medium containing 400 μg/ml G418 for several weeks and then a polyclonal population was selected for GFP fluorescence in a cell sorting device (BD FACSAria II flow cytometer). Cell surface expression was confirmed by confocal laser-scanning microscopy (GFP fluorescence) and flow cytometry using anti-FLAG M2 (Sigma).
HEK-293 cells stably expressing TSHR, FSHR, LHGCR or CRF1R were cultured for 48 h and stimulated for 1 h at 37° C. with stimulation buffer (DMEM supplemented with 10 mM HEPES, 0.5% BSA, 0.25 mM 3-isobutyl-1-methylxanthine) containing the ligands as indicated. […] After reconstitution and acetylation of the samples (Jäschke et al. 2006), the cAMP content was determined using cAMP-^125I-tyrosyl methyl ester (10,000 cpm, IBL) and polyclonal rabbit anti cAMP antibodies. […]

LHCGR = target: T5, LHCGR (Homo sapiens, UniProt P22888); assay: Selectivity test: cAMP RIA in HEK-293 cells stably expressing LHCGR; conditions: 50 μM together with the respective agonist
T5 construct: expressed in transfected cells
T5 sequence (P22888 27-699, species assumed): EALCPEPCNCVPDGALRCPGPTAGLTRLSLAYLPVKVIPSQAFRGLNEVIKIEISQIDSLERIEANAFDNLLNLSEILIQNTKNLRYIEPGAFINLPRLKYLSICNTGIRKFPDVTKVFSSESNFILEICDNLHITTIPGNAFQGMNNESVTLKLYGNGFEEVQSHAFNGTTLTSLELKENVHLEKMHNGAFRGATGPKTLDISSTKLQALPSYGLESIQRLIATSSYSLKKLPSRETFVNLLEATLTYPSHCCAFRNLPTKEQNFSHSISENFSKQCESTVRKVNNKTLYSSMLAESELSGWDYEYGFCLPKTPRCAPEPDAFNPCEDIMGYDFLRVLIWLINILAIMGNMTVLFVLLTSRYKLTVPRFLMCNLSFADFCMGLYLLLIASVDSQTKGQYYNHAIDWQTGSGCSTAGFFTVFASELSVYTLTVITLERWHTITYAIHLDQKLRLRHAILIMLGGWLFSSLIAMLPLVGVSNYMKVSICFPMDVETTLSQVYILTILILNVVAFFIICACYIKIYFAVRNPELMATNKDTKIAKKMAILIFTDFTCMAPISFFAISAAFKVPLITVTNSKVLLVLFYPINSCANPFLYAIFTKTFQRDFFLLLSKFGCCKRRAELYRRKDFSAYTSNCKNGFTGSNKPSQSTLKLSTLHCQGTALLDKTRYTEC
Procedure: as §1, §2

antagonistic activity (% inhibition) (TSHR [1]) [%]	IC50 (TSHR [1])	Primary screen hit: cAMP production induced by thyrotropin (TSHR [2])	Mode of antagonism vs. C2 (wt TSHR)	Mode of antagonism vs. TSH (Schild analysis) (TSHR [1])	TSHR selectivity versus homologous receptors LHCGR and FSHR (TSHR [1]; from cAMP inhibition at TSHR, FSHR, LHCGR at 50 μM)	Mode of antagonism vs. C2 at truncated construct (Δ1-408-TSHR)	SMILES	Antagonistic effect (cAMP inhibition) on TSHR (TSHR [1])	Antagonistic effect (cAMP inhibition) on FSHR (FSHR)	Toxicity (cell vitality, alamar blue) [3]	Antagonistic effect (cAMP inhibition) on LHCGR (LHCGR)
63	48.9 µM and 49 µM	potentially abolishing cAMP production					Cc1ccc(N2C(=O)C3C4CC(C3C2=O)C2C(c3ccccc3)c3sc(=O)[nH]c3SC42)cc1 (stereo not drawn) [Compound S4]	inhibits TSHR and FSHR activation	inhibits TSHR and FSHR activation		
70	28 µM		non-competitive antagonism	competitive antagonism	highly TSHR-selective	non-competitive antagonism	O=C1[C@@H]2[C@H]3C[C@H]([C@@H]4Sc5[nH]c(=O)sc5[C@@H](c5ccccc5)[C@H]34)[C@@H]2C(=O)N1c1ccccc1 (racemic) [Compound S37, (4aS,5S,5aR,8aR,9R,9aS,10R)-7,10-diphenyl-3,4a,5,5a,8a,9,9a,10-octahydro-5,9-methanothiazolo[5′,4′:5,6]thiopyrano[2,3-f]isoindole-2,6,8(7H)-trione]	inhibits TSHR comparable to the reference compound 2-7(NIH)		not toxic	
75	18.7 µM and 18.6 µM	potentially abolishing cAMP production	non-competitive antagonism	non-competitive antagonism			O=C1C2C3C=CC(C3)C2C(=O)N1c1ccc(N2CCN(c3cccc(C(F)(F)F)c3)CC2)c([N+](=O)[O-])c1 (stereo not drawn) [Compound S9]	unspecifically inhibits all three receptors	unspecifically inhibits all three receptors		unspecifically inhibits all three receptors
